{"source": "patent US6335008B1", "about": "“Hybrid genes incorporating a DNA fragment containing at least one gene encoding an insecticidal protein and a gene encoding a glutamine synthase inhibitor, plasmids, transformed cyanobacteria expressing such proteins and method for use as biocontrol agent” (priority 1987, dated 2002)", "key": {"[1]": {"system": "Synechocystis 6803 transformed with pWP3210", "assay": "Growth on BG-11 agar plate containing PPT or Bialaphos, bar gene transformant", "type": "cell-based", "details": "Bialaphos at 5 micrograms/ml", "procedure": "(§1) Dilution of transformed Synechocystis 6803 was plated on BG-11 agar plate containing PPT (Table 4)."}, "[2]": {"system": "Synechocystis 6803 transformed with pKW 1188", "assay": "Growth on BG-11 agar plate containing PPT or Bialaphos, vector transformant", "type": "cell-based", "details": "Bialaphos at 5 micrograms/ml", "procedure": "as §1"}}, "data": [{"smiles": "C[C@H](NC(=O)[C@H](C)NC(=O)[C@@H](N)CCP(C)(=O)O)C(=O)O", "note": "[Bialaphos]", "values": [{"measurement": "growth on Bialaphos", "setting": "[1]", "result": "neither of these two transformants grow"}, {"measurement": "growth on Bialaphos", "setting": "[2]", "result": "neither of these two transformants grow"}]}]}
